Reference: US8753570B2, “Structure, synthesis, and applications for oligo phenylene ethynylenes” (STC.UNM, priority 2008, dated 2014)

Legend:
[1] = Self-assembly / complex formation on carboxymethylcellulose (absorption, fluorescence); format: binding; details: two-state model, dimer assumed; estimated from absorbances
Description: N-OPE:CMC complexes can be formed by adding small aliquots of CMC to aqueous solutions containing the N-OPE compound. […] [N-OPE-1]=1.5×10^−5M. […] [N-OPE-2]=1.5×10^−5 and [CMC]=0-4.2×10^−5M. Both excitation and emission slits are 2.5 nm. Excitation wavelength for N-OPE-1 is 355 nm and for N-OPE-2 is 375 nm. For both N-OPEs there are several isosbestic points in the absorption spectra as the two bands in the absorption for water alone are replaced by a spectrum of the N-OPE:CMC having two bands at longer wavelength. For both N-OPEs the fluorescence also undergoes a red shift and increase in intensity as aliquots of CMC are added, finally leveling off at moderate concentrations (greater than 1 mM) of CMC. […]
Binding constants (assuming that an N-OPE dimer is formed in each case) can be estimated from a determination of the individual absorbances of the two species following a treatment for a similar two-state system developed by Pasternack and co-workers. […]
Self-assembly is not limited solely to the non-symmetrical N-OPE compounds. […] The changes that occur for S-OPE-1 (H), N-OPE-1 and S-OPE-1 (COOEt) (sharp, red shifted absorption spectra, isosbestic points maintained throughout the CMC addition and red-shifted fluorescence) are consistent with an extension of effective conjugation for the oligomers on the carboxylate decorated surface of the CMC.

[2] = Fluorescence quantum yields and fluorescence lifetimes in water and methanol; format: physicochemical; details: for φf in CH3OH / φf in H2O / τ (ns): Table 2; for τ (ns): fluorescence lifetime; for fluorescence quantum efficiency: in water, quinine sulfate standard; for Φf / τf (ns): Table 1
Description: (§1) While the synthetic steps are all straight-forward, those involving conversion of the diiodobenzene to 4-(4-iodophenyl)-2-methyl-3-butyn-2-ol occur with lower yields and the desired products must be separated from structurally similar byproducts. The alkylamino groups were attached in an early step but converted to the quaternary ammonium derivatives as the last step of the synthesis. The intermediates and final products were characterized by mass spectrometry and proton and carbon NMR. […]
The absorption and fluorescence in methanol occur at very similar wavelengths. In both solvents there is no concentration dependence of the spectra in the micromolar range and it seems likely that in both solvents the N-OPE are monomeric. […] Fluorescent lifetimes in water are correspondingly shorter than in methanol.
Three symmetrical molecules, S-OPE-1 (H), S-OPE-1 (COOEt) and S-OPE-1 (COO—) show similar two-banded absorption spectra in water and methanol.
(§2) The spectra are concentration independent in the micromolar concentration range and there is a small red shift in the series: S-OPE-1 (H), N-OPE-1=S-OPE-1 (COO—), S-OPE-1 (COOEt). […] Furthermore, we have also synthesized and carried out studies of S-OPE-1 (x) where x=NH2, COCH3, both of these compounds show similar absorption spectra to that of S-OPE-1 (COOEt). The fluorescence of all four compounds shown in Table 2 is strong in methanol and there is little variation in fluorescence efficiency among the different substituted derivatives. However there is a significant variation in the fluorescence efficiencies in aqueous solution ranging from 0.02 for S-OPE-1 (COOEt) to 0.80 for S-OPE-1 (H). […] Clearly the ester groups in N-OPE-1 and S-OPE-1 (COOEt) must play a major role in a solvent-dependent process which deactivates the excited singlet of the oligomers in water. Nanosecond transient absorption spectroscopy was carried out on the OPEs in order to monitor the triplet states. […] The transient lifetimes and spectra are consistent with a triplet state assignment. The 1max of triplet-triplet absorption shifts from 518 nm to 569 nm following the extent of conjugation: S-OPE1-H (518 nm), N-OPE-1 (533 nm), S-OPE-1 (COO—) (557 nm), then S-OPE-1 (COOEt) (569 nm). The apparent triplet yields decrease in the order of S-OPE-1 (H)>S-OPE-1 (COO—)>>N-OPE-1>>S-OPE-1 (COOEt). The triplet lifetimes follow a similar trend as the triplet yield (Table 2).

[3] = Nanosecond transient absorption spectroscopy (triplet state lifetime); format: physicochemical; details: aqueous solution
Description: as §2

[4] = Solubility in water and polar organic solvents; format: physicochemical; details: water and polar organic solvents such as methanol
Description: as §1

[5] = system: Pseudomonas aeruginosa Strain PAO1; test: Dark and light activated biocidal activity; format: cell-based; details: for biocidal activity: in solution and attached to surfaces; for light activated biocidal activity: short term irradiation with near ultraviolet light
Description: The OPEs described herein have been synthesized and studied as dark and light activated biocides towards a Gram negative bacterium, Pseudomonas aeruginosa Strain PAO1. […] N-OPE-1 has been attached to surfaces by covalent linkage. This has been accomplished for both micron sized glass beads and glass slides.

[6] = exposed to bacteria in the dark, up to one hour
[7] = suspensions of Pseudomonas, much slower than light-activated

Row | Structure (SMILES) | φf in CH3OH [2] | φf in H2O [2] | τ (ns) ([2]; column after φf in CH3OH) | τ (ns) ([2]; column after φf in H2O) | τTA (μs) [3] [μs] | dark biocidal activity [5, 6] | biocidal activity [5] | light activated biocidal activity [5] | further results
1 | CCOC(=O)c1ccc(C#Cc2cc(OCCC[N+](C)(C)C)c(C#Cc3ccccc3)cc2OCCC[N+](C)(C)C)cc1.[Cl-].[Cl-] [N-OPE-1] | 0.68 | 0.15 | 1.6 | 1.5 | 107 | relatively inactive | active biocides both in solution and attached to surfaces | active as a biocide | binding constant K, CMC:(N-OPE)2 [1]: less accurate and slightly lower; fluorescence quantum efficiency [2]: ~15%; Φf ([2]; solvent H2O): 0.147; τf (ns) ([2]; solvent H2O): 0.78 ns; Φf ([2]; solvent Methanol): 0.68; τf (ns) ([2]; solvent Methanol): 1.57 ns; solubility [4]: readily soluble in water and polar organic solvents such as methanol
2 | C[N+](C)(C)CCCOc1cc(C#Cc2ccc(C#Cc3cc(OCCC[N+](C)(C)C)c(C#Cc4ccc(C#Cc5cc(OCCC[N+](C)(C)C)c(C#Cc6ccccc6)cc5OCCC[N+](C)(C)C)cc4)cc3OCCC[N+](C)(C)C)cc2)c(OCCC[N+](C)(C)C)cc1C#Cc1ccccc1.[Cl-].[Cl-].[Cl-].[Cl-].[Cl-].[Cl-] [S-OPE-3 (x=H)] |  |  |  |  |  |  |  |  | dark biocidal activity [5, 7]: observed
3 | C[N+](C)(C)CCCOc1cc(C#Cc2ccc(C#Cc3cc(OCCC[N+](C)(C)C)c(C#Cc4ccccc4)cc3OCCC[N+](C)(C)C)cc2)c(OCCC[N+](C)(C)C)cc1C#Cc1ccccc1.[Cl-].[Cl-].[Cl-].[Cl-] [S-OPE-2 (x=H)] |  |  |  |  |  |  |  |  | light-activated biocidal activity (rank) ([5]; suspensions of Pseudomonas): S-OPE-1 (x=H)<S-OPE-2 (x=H); dark biocidal activity [5, 7]: observed
4 | CCOC(=O)c1ccc(C#Cc2cc(OCCC[N+](C)(C)C)c(C#Cc3ccc(C#Cc4cc(OCCC[N+](C)(C)C)c(C#Cc5ccc(C#Cc6cc(OCCC[N+](C)(C)C)c(C#Cc7ccccc7)cc6OCCC[N+](C)(C)C)cc5)cc4OCCC[N+](C)(C)C)cc3)cc2OCCC[N+](C)(C)C)cc1.[Cl-].[Cl-].[Cl-].[Cl-].[Cl-].[Cl-] [N-OPE-3] |  |  |  |  |  | active against bacteria both in the dark and in the light | active biocides both in solution and attached to surfaces | active against bacteria both in the dark and in the light | 
5 | CCOC(=O)c1ccc(C#Cc2cc(OCCC[N+](C)(C)C)c(C#Cc3ccc(C#Cc4cc(OCCC[N+](C)(C)C)c(C#Cc5ccccc5)cc4OCCC[N+](C)(C)C)cc3)cc2OCCC[N+](C)(C)C)cc1.[Cl-].[Cl-].[Cl-].[Cl-] [N-OPE-2] |  |  |  |  |  | active against bacteria both in the dark and in the light | active biocides both in solution and attached to surfaces | active against bacteria both in the dark and in the light | fluorescence quantum efficiency [2]: over 1%; Φf ([2]; solvent H2O): 0.012; τf (ns) ([2]; solvent H2O): 0.37 ns; Φf ([2]; solvent Methanol): 0.68; τf (ns) ([2]; solvent Methanol): 0.92 ns; solubility [4]: readily soluble in water and polar organic solvents such as methanol

Second part, led by results:

Row | φf in CH3OH [2] | φf in H2O [2] | τ (ns) ([2]; column after φf in CH3OH) | τ (ns) ([2]; column after φf in H2O) | τTA (μs) [3] [μs] | Structure (SMILES) | dark biocidal activity [5, 6] | biocidal activity [5] | light activated biocidal activity [5] | further results
6 | 0.74 | 0.70 | 1.3 | 1.5 | 136 | C[N+](C)(C)CCCOc1cc(C#Cc2ccc(C(=O)[O-])cc2)c(OCCC[N+](C)(C)C)cc1C#Cc1ccc(C(=O)[O-])cc1 [S-OPE-1 (COO—)] |  |  |  | 
7 | 0.75 | 0.023 | 1.4 | 1.0 | 77 | CCOC(=O)c1ccc(C#Cc2cc(OCCC[N+](C)(C)C)c(C#Cc3ccc(C(=O)OCC)cc3)cc2OCCC[N+](C)(C)C)cc1.[Cl-].[Cl-] [S-OPE-1 (COOEt)] |  |  |  | fluorescence efficiency in aqueous solution [2]: 0.02
8 | 0.82 | 0.80 | 1.4 | 1.6 | 216 | C[N+](C)(C)CCCOc1cc(C#Cc2ccccc2)c(OCCC[N+](C)(C)C)cc1C#Cc1ccccc1.[Cl-].[Cl-] [S-OPE-1 (H)] |  |  |  | fluorescence efficiency in aqueous solution [2]: 0.80; light-activated biocidal activity (rank) ([5]; suspensions of Pseudomonas): S-OPE-1 (x=H)<S-OPE-2 (x=H)
